Results taken from the supplement of paper PMC11061612.

Legend:
[1] = system: 8305C (Thyroid Gland Carcinoma); test: Bliss excess, mean over the matrix (fraction); higher = more synergy
Method in brief: (§1)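 After 24 hours at 37°C and 5% CO2 in 1536-well plates, cells in DMEM/F12 or RPMI plus 10% FBS received two-drug dose matrices for 72 hours. Viability came from CellTiter-Glo 2.0 luminescence and was scaled as inhibition, anchored at 0 by vehicle wells and at 1 by blank wells. Combination Emax is taken as the second-highest inhibition in the matrix, and Bliss excess as the observed combination effect less EA + EB − EA·EB, with EA and EB the single-agent effects.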

[2] = system: CTB-1 (B-Cell Non-Hodgkin's Lymphoma); test: as above
Method in brief: as §1

[3] = system: SIMA (Neuroblastoma); test: as above
Method in brief: as §1

[4] = system: NCI-H747 (Colorectal Carcinoma); test: as above
Method in brief: as §1

[5] = system: RH-18 (Rhabdomyosarcoma); test: as above
Method in brief: as §1

[6] = system: MDA-MB-468 (Breast Carcinoma); test: as above
Method in brief: as §1

[7] = system: KYSE-410 (Esophageal Squamous Cell Carcinoma); test: as above
Method in brief: as §1

[8] = system: HARA (Squamous Cell Lung Carcinoma); test: as above
Method in brief: as §1

[9] = system: 639-V (Bladder Carcinoma); test: as above
Method in brief: as §1

[10] = system: Hs-633T (Other Solid Carcinomas); test: as above
Method in brief: as §1

[11] = system: SIMA (Neuroblastoma); test: combination Emax (second highest fraction inhibited in the dose matrix, 72 h); higher = more inhibition; extreme values may be limits of the assay
Method in brief: as §1

[12] = system: RH-18 (Rhabdomyosarcoma); test: as above
Method in brief: as §1
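For Bliss excess, mean over the matrix in this document: after 72 h of two-drug dosing.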

SMILES | Bliss excess [1] | Bliss excess [2] | Bliss excess [3] | Bliss excess [4] | Bliss excess [5] | Bliss excess [6] | Bliss excess [7] | Bliss excess [8] | Bliss excess [9] | Bliss excess [10] | combination Emax [11] | combination Emax [12]
Cc1cc2ncnn2cc1Nc1ncc2c(n1)n(C1CCOCC1)c(=O)n2C [AZD7648] + CN(C)CCCOc1ccc(-c2ccc3ncc4c(c3c2)n(C2CCOCC2)c(=O)n4C)cn1 [AZD0156] (first compound max 10 µM, 7x7, partner max 1 µM) | -0.061 | -0.0485 | 0.0504 | 0.0253 | -0.0092 | 0.0032 | -0.0059 | 0.0352 | 0.0192 | 0.0271 | 0.312 | 0.333
C=CCn1c(=O)c2cnc(Nc3ccc(N4CCN(C)CC4)cc3)nc2n1-c1cccc(C(C)(C)O)n1 [AZD1775] + O=C(c1cc(Cc2n[nH]c(=O)c3ccccc23)ccc1F)N1CCN(C(=O)C2CC2)CC1 [Olaparib] (first compound max 1 µM, partner max 10 µM) | -0.0762 | -0.0921 | 0.0028 | 0.0175 | -0.0018 | -0.0449 | -0.04 | -0.0325 | 0.0085 | -0.0188 | 0.721 | 0.401
COc1cccc(OCCCN)c1-c1cc(Nc2cnc(C#N)cn2)n[nH]1 [Prexasertib] + CN(C)CCCOc1ccc(-c2ccc3ncc4c(c3c2)n(C2CCOCC2)c(=O)n4C)cn1 [AZD0156] (first compound max 1 µM, 7x7, partner max 1 µM) | -0.0926 | 0.0109 | 0.0111 | -0.0095 | -0.0006 | -0.057 | -0.03 | -0.0038 | 0.0592 | -0.0151 | 1 | 0.426
Cc1cc2ncnn2cc1Nc1ncc2c(n1)n(C1CCOCC1)c(=O)n2C [AZD7648] + C[C@@H]1COCCN1C2=NC(=NC(=C2)C3(CC3)[S@](=N)(=O)C)C4=C5C=CNC5=NC=C4 [AZD6738] (first compound max 10 µM, 7x7, partner max 10 µM) | 0.02 | 0.0098 | 0.0326 | 0.0005 | 0.0727 | -0.0063 | 0.0285 | -0.0073 | 0.0317 | -0.0138 | 0.904 | 0.365
CCN(CCO)CCCOc1ccc2c(Nc3cc(CC(=O)Nc4cccc(F)c4)[nH]n3)ncnc2c1 [AZD2811] + O=C(c1cc(Cc2n[nH]c(=O)c3ccccc23)ccc1F)N1CCN(C(=O)C2CC2)CC1 [Olaparib] (first compound max 1 µM, 7x7, partner max 10 µM) | -0.0398 | -0.0508 | 0.0206 | 0.03 | 0.0097 | 0.0541 | -0.0308 | -0.0071 | 0.0445 | 0 | 0.213 | 0.257
COc1cccc(OCCCN)c1-c1cc(Nc2cnc(C#N)cn2)n[nH]1 [Prexasertib] + C=CCn1c(=O)c2cnc(Nc3ccc(N4CCN(C)CC4)cc3)nc2n1-c1cccc(C(C)(C)O)n1 [AZD1775] (first compound max 1 µM, partner max 1 µM) | 0.0491 | 0.0374 | 0.0181 | 0.0623 | 0.154 | 0.0399 | 0.0066 | 0.075 | 0.178 | 0.0796 | 0.993 | 0.492
Cc1cc2ncnn2cc1Nc1ncc2c(n1)n(C1CCOCC1)c(=O)n2C [AZD7648] + CCN(CCO)CCCOc1ccc2c(Nc3cc(CC(=O)Nc4cccc(F)c4)[nH]n3)ncnc2c1 [AZD2811] (first compound max 10 µM, 7x7, partner max 1 µM) | -0.0159 | -0.0578 | 0.0728 | -0.0205 | 0.0148 | -0.0442 | -0.0046 | 0.017 | 0.0219 | 0.0211 | 0.532 | 0.333
COc1cccc2c1C(=O)c1c(O)c3c(c(O)c1C2=O)C[C@@](O)(C(=O)CO)C[C@@H]3O[C@H]1C[C@H](N)[C@H](O)[C@H](C)O1 [Doxorubicin] + Cc1cc2ncnn2cc1Nc1ncc2c(n1)n(C1CCOCC1)c(=O)n2C [AZD7648] (first compound max 1 µM, 7x7, partner max 10 µM) | -0.0023 | 0.077 | 0.0859 | 0.0388 | 0.0463 | 0.0309 | -0.0448 | 0.0915 | 0.117 | 0.118 | 0.854 | 0.76
CN(C)CCCOc1ccc(-c2ccc3ncc4c(c3c2)n(C2CCOCC2)c(=O)n4C)cn1 [AZD0156] + CCN(CCO)CCCOc1ccc2c(Nc3cc(CC(=O)Nc4cccc(F)c4)[nH]n3)ncnc2c1 [AZD2811] (first compound max 1 µM, 7x7, partner max 1 µM) | -0.0794 | 0.002 | -0.0085 | -0.02 | -0.0253 | -0.0326 | -0.0431 | 0.0136 | 0.0064 | -0.0139 | 0.131 | 0.136
CCN(CCO)CCCOc1ccc2c(Nc3cc(CC(=O)Nc4cccc(F)c4)[nH]n3)ncnc2c1 [AZD2811] + C=CCn1c(=O)c2cnc(Nc3ccc(N4CCN(C)CC4)cc3)nc2n1-c1cccc(C(C)(C)O)n1 [AZD1775] (first compound max 1 µM, partner max 1 µM) | -0.0355 | 0.0011 | -0.0113 | -0.0538 | -0.0471 | 0.0205 | -0.0179 | -0.0086 | 0.0509 | -0.008 | 0.855 | 0.245
COc1cccc(OCCCN)c1-c1cc(Nc2cnc(C#N)cn2)n[nH]1 [Prexasertib] + O=C(c1cc(Cc2n[nH]c(=O)c3ccccc23)ccc1F)N1CCN(C(=O)C2CC2)CC1 [Olaparib] (first compound max 1 µM, 7x7, partner max 10 µM) | -0.0732 | -0.0667 | -0.0728 | 0.0024 | -0.0295 | -0.106 | -0.0463 | -0.0682 | 0.101 | -0.0074 | 0.97 | 0.327
COc1cccc(OCCCN)c1-c1cc(Nc2cnc(C#N)cn2)n[nH]1 [Prexasertib] + Cc1cc2ncnn2cc1Nc1ncc2c(n1)n(C1CCOCC1)c(=O)n2C [AZD7648] (first compound max 1 µM, 7x7, partner max 10 µM) | -0.0726 | -0.0352 | -0.035 | 0.0085 | 0.0455 | 0.0262 | -0.0267 | -0.0085 | -0.0051 | 0.0201 | 0.992 | 0.382
Cc1cc2ncnn2cc1Nc1ncc2c(n1)n(C1CCOCC1)c(=O)n2C [AZD7648] + O=C(c1cc(Cc2n[nH]c(=O)c3ccccc23)ccc1F)N1CCN(C(=O)C2CC2)CC1 [Olaparib] (first compound max 10 µM, 7x7, partner max 10 µM) | -0.0478 | -0.0489 | -0.02 | -0.0465 | -0.0417 | -0.0504 | -0.0466 | -0.0114 | -0.0184 | -0.0191 | 0.192 | 0.182
CN(C)CCCOc1ccc(-c2ccc3ncc4c(c3c2)n(C2CCOCC2)c(=O)n4C)cn1 [AZD0156] + C=CCn1c(=O)c2cnc(Nc3ccc(N4CCN(C)CC4)cc3)nc2n1-c1cccc(C(C)(C)O)n1 [AZD1775] (first compound max 1 µM, partner max 1 µM) | 0.012 | 0.0101 | -0.006 | -0.0309 | -0.0645 | -0.0449 | -0.0464 | -0.007 | -0.0232 | -0.007 | 0.873 | 0.337
CN(C)CCCOc1ccc(-c2ccc3ncc4c(c3c2)n(C2CCOCC2)c(=O)n4C)cn1 [AZD0156] + C[C@@H]1COCCN1C2=NC(=NC(=C2)C3(CC3)[S@](=N)(=O)C)C4=C5C=CNC5=NC=C4 [AZD6738] (first compound max 1 µM, 7x7, partner max 10 µM) | -0.0765 | -0.063 | 0.074 | -0.0103 | -0.0312 | -0.011 | -0.0201 | 0.0257 | 0.0109 | 0.0537 | 0.9 | 0.343
COc1cccc(OCCCN)c1-c1cc(Nc2cnc(C#N)cn2)n[nH]1 [Prexasertib] + C[C@@H]1COCCN1C2=NC(=NC(=C2)C3(CC3)[S@](=N)(=O)C)C4=C5C=CNC5=NC=C4 [AZD6738] (first compound max 1 µM, 7x7, partner max 10 µM) | -0.0226 | -0.091 | -0.0198 | -0.0294 | 0.076 | -0.0106 | -0.0548 | -0.0117 | 0.0838 | 0.0095 | 0.989 | 0.475
CCc1c2c(nc3ccc(O)cc13)-c1cc3c(c(=O)n1C2)COC(=O)[C@]3(O)CC [SN-38] + CN(C)CCCOc1ccc(-c2ccc3ncc4c(c3c2)n(C2CCOCC2)c(=O)n4C)cn1 [AZD0156] (first compound max 0.3 µM, 7x7, partner max 1 µM) | 0.0088 | -0.0393 | -0.0753 | 0.0019 | -0.0477 | 0.0309 | -0.0542 | 0.112 | 0.068 | 0.153 | 0.907 | 0.459
CCN(CCO)CCCOc1ccc2c(Nc3cc(CC(=O)Nc4cccc(F)c4)[nH]n3)ncnc2c1 [AZD2811] + C[C@@H]1COCCN1C2=NC(=NC(=C2)C3(CC3)[S@](=N)(=O)C)C4=C5C=CNC5=NC=C4 [AZD6738] (first compound max 1 µM, 7x7, partner max 10 µM) | -0.0872 | -0.0826 | -0.0332 | -0.044 | -0.0336 | -0.0977 | -0.0514 | 0.0144 | -0.0164 | -0.0197 | 0.766 | 0.344
Cc1cc2ncnn2cc1Nc1ncc2c(n1)n(C1CCOCC1)c(=O)n2C [AZD7648] + C=CCn1c(=O)c2cnc(Nc3ccc(N4CCN(C)CC4)cc3)nc2n1-c1cccc(C(C)(C)O)n1 [AZD1775] (first compound max 10 µM, partner max 1 µM) | -0.0825 | -0.0542 | 0.0406 | -0.0108 | 0.0278 | -0.0044 | -0.0094 | -0.0542 | 0.049 | -0.0333 | 0.941 | 0.426
C=CCn1c(=O)c2cnc(Nc3ccc(N4CCN(C)CC4)cc3)nc2n1-c1cccc(C(C)(C)O)n1 [AZD1775] + C[C@@H]1COCCN1C2=NC(=NC(=C2)C3(CC3)[S@](=N)(=O)C)C4=C5C=CNC5=NC=C4 [AZD6738] (first compound max 1 µM, partner max 10 µM) | -0.122 | -0.0464 | 0.0547 | -0.0002 | -0.0014 | 0.0344 | -0.0061 | -0.0239 | 0.0455 | 0.0309 | 0.906 | 0.625
